Results from US11596639B2, “Substituted indole Mcl-1 inhibitors” (Vanderbilt University, priority 2016, dated 2023).
Read-outs that look alike come from different tables or passages of the source.

Assays:
[1] = tested on: H929 human cancer cell lines; assay: Cellular viability / proliferation (Cell TiterGlo, 72 h); type: cell-based
Outline: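 H929 cells plated at 1,000/well in 10% FBS medium received a 2-fold serial compound dilution (top 50 μM, DMSO <1%) 24 h later. After 72 h, viability was read by CellTiter-Glo luminescence. IC50 came from a four-parameter fit.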

Mcl-1 = Mcl-1 (Homo sapiens (Human), UniProt Q07820); assay: Fluorescence polarization anisotropy (FPA) competition assay, FITC-Bak or FITC-Bim BH3 peptide; type: binding; conditions: read-out: Ki for Inhibition of Mcl-1 by FPA assay
Chain of Mcl-1 (Q07820 172-327): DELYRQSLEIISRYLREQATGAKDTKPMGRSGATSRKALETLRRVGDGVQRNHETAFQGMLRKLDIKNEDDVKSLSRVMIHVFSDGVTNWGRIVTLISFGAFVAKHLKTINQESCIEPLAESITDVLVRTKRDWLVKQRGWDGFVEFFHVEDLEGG

[2] = Homo sapiens, NCI-H929, 72 h, read-out: GI50 on cellular proliferation of H929 human cancer cell lines, H929 cells, 72 h, Cell TiterGlo, 10% FBS
[3] = H929 cells, 72 h, Cell TiterGlo, 10% FBS, read-out: GI50 on cellular proliferation of H929 human cancer cell lines

Q: How did the GI50 [1, 2] turn out when `Cc1cc(OCCCc2c3n(c4c(-c5c(C)nn(C)c5C)c(Cl)ccc24)[C@H](C)CN(c2cn(C)c4ccc(-c5ncn(CC6CC6)n5)cc24)C3=O)cc(C)c1Cl` [Example 462, (R)-7-Chloro-10-(3-(4-chloro-3,5-dimethylphenoxy)propyl)-2-(5-(1-(cyclopropylmethyl)-1H-1,2,4-triazol-3-yl)-1-methyl-1H-indol-3-yl)-4-methyl-6-(1,3,5-trimethyl-1H-pyrazol-4-yl)-3,4-dihydropyrazino[1,2-a]indol-1(2H)-one] was run?
A: 0.99 µM

Q: What about the Ki (Mcl-1) of the same compound?
A: 0.002 µM

Q: For `Cc1cc(OCCCc2c3n(c4c(-c5c(C)nn(C)c5C)c(Cl)ccc24)[C@H](C)CN(c2cccc4ccc(C(=O)O)cc24)C3=O)cc(C)c1Cl` [Example 368, (P, R)-8-(7-Chloro-10-(3-(4-chloro-3,5-dimethylphenoxy)propyl)-4-methyl-1-oxo-6-(1,3,5-trimethyl-1H-pyrazol-4-yl)-3,4-dihydropyrazino[1,2-a]indol-2(1H)-yl)-2-naphthoic acid], which GI50 [1, 3] is on record?
A: 0.62 µM

Q: And the Ki (Mcl-1)?
A: 0.0014 µM

Q: Which results are given for `COc1ccc(N2C[C@@H](C)n3c(c(CCCOc4cc(C)c(Cl)c(C)c4)c4ccc(Cl)c(-c5c(C)nn(C)c5C)c43)C2=O)c2c1cc(C(=O)O)n2C` [Example 192, (R)-7-(7-Chloro-10-(3-(4-chloro-3,5-dimethylphenoxy)propyl)-4-methyl-1-oxo-6-(1,3,5-trimethyl-1H-pyrazol-4-yl)-3,4-dihydropyrazino[1,2-a]indol-2(1H)-yl)-4-methoxy-1-methyl-1H-indole-2-carboxylic acid]?
A: GI50 [1, 2]: < 0.2 µM; Ki (Mcl-1): < 0.001 µM

Q: What does the source list for `CCn1cc(N2C[C@@H](C)n3c(c(CCCOc4cc(C)c(Cl)c(C)c4)c4ccc(Cl)c(-c5c(C)nn(C)c5C)c43)C2=O)c2ccc(C(=O)O)cc21` [Example 104, (R)-3-(7-Chloro-10-(3-(4-chloro-3,5-dimethylphenoxy)propyl)-4-methyl-1-oxo-6-(1,3,5-trimethyl-1H-pyrazol-4-yl)-3,4-dihydropyrazino[1,2-a]indol-2(1H)-yl)-1-ethyl-1H-indole-6-carboxylic acid]?
A: GI50 [1, 2]: 0.57 µM; Ki (Mcl-1): < 0.001 µM

Q: With `Cc1cc(OCCCc2c3n(c4c(-c5c(C)nn(CCN6CCCC6)c5C)c(Cl)ccc24)[C@H](C)CN(c2cccc4c2cc(C(=O)O)n4C)C3=O)cc(C)c1Cl` [Example 318, (R)-4-(7-Chloro-10-(3-(4-chloro-3,5-dimethylphenoxy)propyl)-6-(3,5-dimethyl-1-(2-(pyrrolidin-1-yl)ethyl)-1H-pyrazol-4-yl)-4-methyl-1-oxo-3,4-dihydropyrazino[1,2-a]indol-2(1H)-yl)-1-methyl-1H-indole-2-carboxylic acid] as the compound, how does the GI50 [1, 2] read?
A: 0.82 µM

Q: And the Ki (Mcl-1)?
A: 0.0015 µM

Q: How did the GI50 [1, 2] turn out when `Cc1cccc(OCCCc2c3n(c4c(-c5c(C)nn(C)c5C)c(Cl)ccc24)[C@H](C)CN(c2cn(C)c4ccc(C(=O)O)cc24)C3=O)c1` [Example 405, (R)-3-(7-Chloro-4-methyl-1-oxo-10-(3-(m-tolyloxy)propyl)-6-(1,3,5-trimethyl-1H-pyrazol-4-yl)-3,4-dihydropyrazino[1,2-a]indol-2(1H)-yl)-1-methyl-1H-indole-5-carboxylic acid] was run?
A: 0.46 µM

Q: What about the Ki (Mcl-1) of the same compound?
A: < 0.001 µM

Q: Which results are given for `Cc1cc(OCCCc2c3n(c4c(-c5c(C)nn(C)c5C)c(Cl)ccc24)[C@H](C)CN(c2cn4cccc(C(=O)O)c4n2)C3=O)cc(C)c1Cl` [Example 112, (R)-2-(7-chloro-10-(3-(4-chloro-3,5-dimethylphenoxy)propyl)-4-methyl-1-oxo-6-(1,3,5-trimethyl-1H-pyrazol-4-yl)-3,4-dihydropyrazino[1,2-a]indol-2(1H)-yl)imidazo[1,2-a]pyridine-8-carboxylic acid]?
A: GI50 [1, 2]: 5.3 µM; Ki (Mcl-1): 0.0033 µM

Q: Which GI50 ([1]; read-out: GI50 on cellular proliferation of H929 human cancer cell lines, H929 cells, 72 h, Cell TiterGlo, 10% FBS) does the source give for `Cc1cc(OCCCc2c3n(c4c(-c5c(C)nn(C)c5C)c(Cl)ccc24)[C@H](C)CN(c2cccc4cc(C(N)=O)n(C)c24)C3=O)cc(C)c1Cl` [Example 377, (R)-7-(7-chloro-10-(3-(4-chloro-3,5-dimethylphenoxy)propyl)-4-methyl-1-oxo-6-(1,3,5-trimethyl-1H-pyrazol-4-yl)-3,4-dihydropyrazino[1,2-a]indol-2(1H)-yl)-1-methyl-1H-indole-2-carboxamide] here?
A: 0.63 µM

Q: What about the Ki (Mcl-1) of the same compound?
A: 0.0049 µM

Q: For `Cc1cc(OCCCc2c3n(c4c(-c5c(C)nn(C)c5C)c(Cl)ccc24)[C@H](C)CN(c2cc(OCCN4CCOCC4)cc4cc(C(=O)O)n(C)c24)C3=O)cc(C)c1Cl` [Example 458, (R)-7-(7-Chloro-10-(3-(4-chloro-3,5-dimethylphenoxy)propyl)-4-methyl-1-oxo-6-(1,3,5-trimethyl-1H-pyrazol-4-yl)-3,4-dihydropyrazino[1,2-a]indol-2(1H)-yl)-1-methyl-5-(2-morpholinoethoxy)-1H-indole-2-carboxylic acid], which GI50 [1, 2] is on record?
A: 0.29 µM

Q: What about the Ki (Mcl-1) of the same compound?
A: 0.0012 µM

Q: Which GI50 [1, 3] does the source give for `Cc1cc(OCCCc2c3n(c4c(-c5c(C)nn(C)c5C)c(Cl)ccc24)[C@H](C)CN(c2ccc(OCc4ccccc4)c4c2cc(C(=O)O)n4C)C3=O)cc(C)c1Cl` [Example 327, (P, R)-7-(Benzyloxy)-4-(7-chloro-10-(3-(4-chloro-3,5-dimethylphenoxy)propyl)-4-methyl-1-oxo-6-(1,3,5-trimethyl-1H-pyrazol-4-yl)-3,4-dihydropyrazino[1,2-a]indol-2(1H)-yl)-1-methyl-1H-indole-2-carboxylic acid] here?
A: 3.6 µM

Q: What about the Ki (Mcl-1) of the same compound?
A: 0.0016 µM

Q: `CCn1cc(C(=O)O)c2cccc(N3C[C@@H](C)n4c(c(CCCOc5cc(C)c(Cl)c(C)c5)c5ccc(Cl)c(-c6c(C)nn(C)c6C)c54)C3=O)c21` [Example 103, (R)-7-(7-Chloro-10-(3-(4-chloro-3,5-dimethylphenoxy)propyl)-4-methyl-1-oxo-6-(1,3,5-trimethyl-1H-pyrazol-4-yl)-3,4-dihydropyrazino[1,2-a]indol-2(1H)-yl)-1-ethyl-1H-indole-3-carboxylic acid] was tested. Which GI50 [1, 2] did it give?
A: 0.48 µM

Q: And the Ki (Mcl-1)?
A: < 0.001 µM

Q: With `COCCn1c(C(=O)O)cc2cc(C(C)C)cc(N3C[C@@H](C)n4c(c(CCCOc5cc(C)c(Cl)c(C)c5)c5ccc(Cl)c(-c6c(C)nn(C)c6C)c54)C3=O)c21` [Example 364, (R)-7-(7-Chloro-10-(3-(4-chloro-3,5-dimethylphenoxy)propyl)-4-methyl-1-oxo-6-(1,3,5-trimethyl-1H-pyrazol-4-yl)-3,4-dihydropyrazino[1,2-a]indol-2(1H)-yl)-5-isopropyl-1-(2-methoxyethyl)-1H-indole-2-carboxylic acid] as the compound, how does the GI50 [1, 2] read?
A: 0.54 µM

Q: What about the Ki (Mcl-1) of the same compound?
A: 0.001 µM

Q: `Cc1cc(OCCCc2c3n(c4c(-c5c(C)nn(C)c5C)c(Cl)ccc24)[C@H](C)CN(c2ccnc4ccc(-c5nn[nH]n5)cc24)C3=O)cc(C)c1Cl` [Example 414, (R)-2-(6-(2H-Tetrazol-5-yl)quinolin-4-yl)-7-chloro-10-(3-(4-chloro-3,5-dimethylphenoxy)propyl)-4-methyl-6-(1,3,5-trimethyl-1H-pyrazol-4-yl)-3,4-dihydropyrazino[1,2-a]indol-1(2H)-one] was tested. Which GI50 [1, 2] did it give?
A: 1.4 µM

Q: What about the Ki (Mcl-1) of the same compound?
A: < 0.001 µM

Q: `Cc1cc(OCCCc2c3n(c4c(-c5c(C)nn(C)c5C)c(Cl)ccc24)[C@H](C)CN(c2cc(OCCN4CCCC4)cc4cc(C(=O)O)n(C)c24)C3=O)cc(C)c1Cl` [Example 460, (R)-7-(7-Chloro-10-(3-(4-chloro-3,5-dimethylphenoxy)propyl)-4-methyl-1-oxo-6-(1,3,5-trimethyl-1H-pyrazol-4-yl)-3,4-dihydropyrazino[1,2-a]indol-2(1H)-yl)-1-methyl-5-(2-(pyrrolidin-1-yl)ethoxy)-1H-indole-2-carboxylic acid] was tested. Which GI50 [1, 2] did it give?
A: 0.42 µM

Q: And the Ki (Mcl-1)?
A: 0.0017 µM

Q: What does the source list for `Cc1cc(OCCCc2c3n(c4c(-c5c(C)nn(C)c5C)c(Cl)ccc24)[C@H](C)CN(c2cn(C)c4c(C)cc(C(=O)O)cc24)C3=O)cc(C)c1Cl` [Example 145, (R)-3-(7-chloro-10-(3-(4-chloro-3,5-dimethylphenoxy)propyl)-4-methyl-1-oxo-6-(1,3,5-trimethyl-1H-pyrazol-4-yl)-3,4-dihydropyrazino[1,2-a]indol-2(1H)-yl)-1,7-dimethyl-1H-indole-5-carboxylic acid]?
A: GI50 [1, 2]: 0.36 µM; Ki (Mcl-1): < 0.001 µM

Q: For `Cc1cc(OCCCc2c3n(c4c(-c5c(C)nn(C)c5C)c(Cl)ccc24)[C@H](C)CN(c2cccc4cc(C(=O)O)n(Cc5nccs5)c24)C3=O)cc(C)c1Cl` [Example 298, 7-[(4R)-7-chloro-10-[3-(4-chloro-3,5-dimethyl-phenoxy)propyl]-4-methyl-1-oxo-6-(1,3,5-trimethylpyrazol-4-yl)-3,4-dihydropyrazino[1,2-a]indol-2-yl]-1-(thiazol-2-ylmethyl)indole-2-carboxylic acid], which GI50 [1, 2] is on record?
A: 0.29 µM

Q: And the Ki (Mcl-1)?
A: < 0.001 µM

Q: Which results are given for `Cc1cc(N2C[C@@H](C)n3c(c(CCCOc4cc(C)c(Cl)c(C)c4)c4ccc(Cl)c(-c5c(C)ncnc5C)c43)C2=O)c2c(c1)cc(C(=O)O)n2C` [Example 272, 7-[(4R)-7-chloro-10-[3-(4-chloro-3,5-dimethyl-phenoxy)propyl]-6-(4,6-dimethylpyrimidin-5-yl)-4-methyl-1-oxo-3,4-dihydropyrazino[1,2-a]indol-2-yl]-1,5-dimethyl-indole-2-carboxylic acid]?
A: GI50 [1, 2]: 0.21 µM; Ki (Mcl-1): < 0.001 µM

Q: Which results are given for `Cc1cc(OCCCc2c3n(c4c(-c5c(C)nn(C)c5C)c(Cl)ccc24)[C@H](C)CN(c2coc4ccccc24)C3=O)cc(C)c1Cl` (single isomer, unassigned) [Example 237]?
A: GI50 [1, 2]: 7.6 µM; Ki (Mcl-1): 0.014 µM

Q: Which GI50 [1, 2] does the source give for `Cc1cc(OCCCc2c3n(c4c(-c5c(C)nc(CN6CCN(C)C(=O)C6)nc5C)c(Cl)ccc24)[C@H](C)CN(c2cn(C)c4ccc(C(=O)O)cc24)C3=O)cc(C)c1Cl` [Example 432, (R)-3-(7-Chloro-10-(3-(4-chloro-3,5-dimethylphenoxy)propyl)-6-(4,6-dimethyl-2-((4-methyl-3-oxopiperazin-1-yl)methyl)pyrimidin-5-yl)-4-methyl-1-oxo-3,4-dihydropyrazino[1,2-a]indol-2(1H)-yl)-1-methyl-1H-indole-5-carboxylic acid] here?
A: 0.21 µM

Q: What about the Ki (Mcl-1) of the same compound?
A: < 0.001 µM
